Molecules are shown by their SMILES.

This is an account of results in patent publication US4226856A, “Preparation and use of bouvardin and deoxybouvardin” (University Patents, Inc., priority 1978, dated 1980).

In data set [1] the test system is Lymphocytic Leukemia P388. The experiment in a line: "PS" test, Lymphocytic Leukemia P388 Protocol 1.200. In kind it is in vivo. Particulars: mice; for RANGE OF % T/C: "PS" test. On the procedure: The in vivo "PS" tests were carried out on mice according to "Lymphocytic Leukemia P388--Protocol 1.200", published in Cancer Chemotherapy Reports, Part 3, Vol. 3, No. 2, page 9, (September 1972) with results reported in terms of percent survivals of test versus control animals (%T/C).
(§1) As one example, the "PS" and "Bl" tests noted above involved subcutaneous administration of the test compounds in simple water solution forms. It is expected that water solutions of bouvardin and deoxybouvardin would ordinarily be stabilized by addition of antioxidant substances.

For another data set, the system named is Melanotic Melanoma B 16. The experiment in a line: "Bl" test, Melanotic Melanoma B 16 Protocol 1.300. The data set is classed as in vivo. Particulars: mice, subcutaneous, water solution. On the procedure:
The in vivo "Bl" were carried out on mice according to "Melanotic Melanoma B 16--Protocol 1.300" (id., p. 11) with reporting and evaluation procedures identical to those of the "PS" test.
as §1

The subject of data set [2] is cells of human adenocarcinoma of the nasopharynx (KB). The experiment in a line: "KB" test, Cell Culture Screen KB Protocol 1.600. In kind it is cell-based. Particulars: 3 days after drug addition, average. As to the method:
The in vitro "KB" tests were carried out according to "Cell Culture Screen KB--Protocol 1.600" (id., p. 17) using cells of human adenocarcinoma of the nasopharynx. Test results are expressed as the dose that inhibits cell growth to 50% of control growth by 3 days after drug addition.

A short description of the next data set: Solubility in water. In kind it is physicochemical.
Excerpt: as §1

For `COc1ccc(C[C@H]2C(=O)N[C@@H](C)C(=O)N(C)[C@H]3Cc4ccc(cc4)Oc4cc(ccc4O)C[C@@H](C(=O)N[C@H](C)C(=O)N[C@@H](C)C(=O)N2C)N(C)C3=O)cc1` [deoxybouvardin], in data set [1] (0.04 to 2.0 mg/kg doses, subcutaneous, water solution), the “"PS" test activity, % T/C” value was 142-216 % T/C. In addition, the “"Bl" test activity, % T/C” value with Melanotic Melanoma B 16 (0.25 to 8.0 mg/kg doses) is reported as 133-175 % T/C. Also, in data set [2], the “"KB" test ED 50 (dose that inhibits cell growth to 50% of control growth)” value amounted to 1.9e-08 ng/mL. Besides, in “Solubility in water”, the Solubility in water result is given as “partially soluble in water”.
As to `COc1ccc(C[C@H]2C(=O)N[C@@H](C)C(=O)N(C)[C@@H]3C(=O)N(C)[C@@H](Cc4ccc(O)c(c4)Oc4ccc(cc4)[C@@H]3O)C(=O)N[C@H](C)C(=O)N[C@@H](C)C(=O)N2C)cc1` [bouvardin], the “RANGE OF % T/C” value in data set [1] (DOSE 0.04) is 134 % T/C; in data set [1] (DOSE 0.07) it was 139 % T/C; in data set [1] (DOSE 0.11), 150 to 164 % T/C; in data set [1] (DOSE 0.16) it was 158 % T/C; in data set [1] (DOSE 0.25), 161 to 188 % T/C; in data set [1] (DOSE 0.50), 135 to 186 % T/C. In addition, the figures for the “RANGE OF % T/C” value in data set [1] (DOSE 1.00) and in data set [1] (DOSE 2.00) were 148 to 217 % T/C and 167 to 205 % T/C, respectively. Further, the “"PS" test activity, % T/C (survival of test versus control animals)” value in data set [1] (dose levels 0.02 to 2.0 mg/kg, subcutaneous, water solution) is given as 135 to 217 % T/C. In the data set with Melanotic Melanoma B 16 (doses 0.12 to 2.0 mg/kg), the “"Bl" test activity, % T/C” value was 134-152 % T/C. In data set [2], the “"KB" test ED 50 (dose that inhibits cell growth to 50% of control growth)” value is “about 4.3×10^-7 μg/L”. Moreover, in the data set “Solubility in water”, the Solubility in water result is “partially soluble in water”.
